Patent US11478478B2, “2,3-disubstituted 1-acyl-4-amino-1,2,3,4-tetrahydroquinoline derivatives and their use as bromodomain inhibitors” (GLAXOSMITHKLINE INTELLECTUAL PROPERTY (NO.2) LIMITED, priority 2013, dated 2022)
Counter-ions that a name gives are not always drawn.

target: T1, BRD4 BD2 (Homo sapiens, UniProt O60885, Y97A); test: TR-FRET binding assay, BRD4 BD2 (BD1-mutated protein); conditions: read-out: pIC50 in the BRD4 BD2 assay (converted)
T1 construct: BRD4 (1-477) (Y97A) and (Y390A); made in house; host or cells: E. coli (pET15b vector)
Experimental: Time Resolved Fluorescence Resonance Energy Transfer (TR-FRET) Assay Binding was assessed using a time resolved fluorescent resonance energy transfer binding assay. This utilises a 6 His purification tag at the N-terminal of the proteins as an epitope for an anti-6 His antibody labeled with Europium chelate (PerkinElmer AD0111) allowing binding of the Europium to the proteins which acts as the donor fluorophore. A small molecule, high affinity binder of the bromodomains BRD2, BRD3, BRD4 and BRDT has been labeled with Alexa Fluor647 (Reference Compound X) and this acts as the acceptor in the FRET pair.
In the absence of a competing compound, excitation of the Europium causes the donor to emit at λ618 nm which excites the Alexa labelled bromodomain binding compound leading to an increased energy transfer that is measurable at λ647 nM. In the presence of a sufficient concentration of a compound that can bind these proteins, the interaction is disrupted leading to a quantifiable drop in fluorescent resonance energy transfer.
The binding of the compounds of formula (I) to Bromodomains BRD2, BRD3, BRD4 and BRDT was assessed using mutated proteins to detect differential binding to either Binding Domain 1 (BD1) or Binding Domain 2 (BD2) on the bromodomain. These single residue mutations in the acetyl lysine binding pocket greatly lower the affinity of the fluoroligand (Reference Compound X) for the mutated domain (>1000 fold selective for the non-mutated domain). Therefore in the final assay conditions, binding of the fluoroligand to the mutated domain cannot be detected and subsequently the assay is suitable to determine the binding of compounds to the single non-mutated bromodomain.
Recombinant Human Bromodomains [(BRD2 (1-473) (Y113A) and (Y386A), BRD3 (1-435) (Y73A) and (Y348A) BRD4 (1-477) (Y97A) and (Y390A) and BRDT (1-397) (Y66A) and (Y309A)] were expressed in E. coli cells (in pET15b vector for BRD2/3/4 and in pET28a vector for BRDT) with a 6-His tag at the N-terminal. The His-tagged Bromodomain pellet was resuspended in 50 mM HEPES (pH7.5), 300 mM NaCl, 10 mM imidazole & 1 μl/ml protease inhibitor cocktail and extracted from the E. coli cells using sonication and purified using a nickel sepharose high performance column, the proteins were washed and then eluted with a linear gradient of 0-500 mM imidazole with buffer 50 mM HEPES (pH7.5), 150 mM NaCl, 500 mM imidazole, over 20 column volumes. Final purification was completed by Superdex 200 prep grade size exclusion column. Purified protein was stored at −80° C. in 20 mM HEPES pH 7.5 and 100 mM NaCl. Protein identity was confirmed by peptide mass fingerprinting and predicted molecular weight confirmed by mass spectrometry.
All assay components were dissolved in buffer composition of 50 mM HEPES pH7.4, 50 mM NaCl, 5% Glycerol, 1 mM DTT and 1 mM CHAPS. The final concentration of bromodomain proteins were 10 nM and the Alexa Fluor647 ligand was at Kd. These components were premixed and 5 μl of this reaction mixture was added to all wells containing 50 nl of various concentrations of test compound or DMSO vehicle (0.5% DMSO final) in Greiner 384 well black low volume microtitre plates and incubated in dark for 30 minutes at rt. 5 μl of detection mixture containing 1.5 nM final concentration anti-6His Europium chelate was added to all wells and a further dark incubation of at least 30 minutes was performed. Plates were then read on the Envision platereader, (λex=317 nm, donor λem=615 nm; acceptor λem=665 nm; Dichroic LANCE dual). Time resolved fluorescent intensity measurements were made at both emission wavelengths and the ratio of acceptor/donor was calculated and used for data analysis. All data was normalized to the mean of 16 high (inhibitor control—Example 11 of WO 2011/054846A1) and 16 low (DMSO) control wells on each plate. A four parameter curve fit of the following form was then applied: y=a+((b−a)/(1+(10^/10^)^d) […]

CC(=O)N1c2ccc(S(C)(=O)=O)cc2[C@H](Nc2cccc(C)n2)[C@@H](C)[C@@H]1C1CC1 (racemic) [Example 67, rac-1-((2S,3R,4R)-2-cyclopropyl-3-methyl-4-((6-methylpyridin-2-yl)amino)-6-(methylsulfonyl)-3,4-dihydroquinolin-1(2H)-yl)ethanone] and CC(=O)N1c2ccc(S(=O)(=O)C(C)C)cc2[C@H](Nc2cccc(C)n2)[C@@H](C)[C@@H]1C1CC1 (racemic) [Example 68, rac-1-((2S,3R,4R)-2-cyclopropyl-6-(isopropylsulfonyl)-3-methyl-4-((6-methylpyridin-2-yl)amino)-3,4-dihydroquinolin-1(2H)-yl)ethanone] fall in the same range of IC50: 1000 to 100000 nM for the first, 1000 to 100000 nM for the second.

CC(=O)N1c2ccc(C3=CCOCC3)cc2[C@H](Nc2cccc(C)n2)[C@@H](C)[C@@H]1C1CC1 (racemic) [Example 85, rac-1-((2S,3R,4R)-2-cyclopropyl-6-(3,6-dihydro-2H-pyran-4-yl)-3-methyl-4-((6-methylpyridin-2-yl)amino)-3,4-dihydroquinolin-1(2H)-yl)ethanone, formic acid salt] and CC(=O)N1c2ccc(C3=CCNCC3)cc2[C@H](Nc2cccc(C)n2)[C@@H](C)[C@@H]1C1CC1 (racemic) [Example 87, rac-1-((2S,3R,4R)-2-cyclopropyl-3-methyl-4-((6-methylpyridin-2-yl)amino)-6-(1,2,3,6-tetrahydropyridin-4-yl)-3,4-dihydroquinolin-1(2H)-yl)ethanone] are the same in IC50: 100 nM for the first, 100 nM for the second.

First: CC(=O)N1c2ccc(C(N)=O)cc2[C@H](Nc2ncc(Cl)cn2)[C@@H](C)[C@@H]1C1CC1 [Example 403, (2S,3R,4R)-1-acetyl-4-((5-chloropyrimidin-2-yl)amino)-2-cyclopropyl-3-methyl-1,2,3,4-tetrahydroquinoline-6-carboxamide]
Second: CC(=O)N1c2ccc(C(N)=O)cc2[C@H](Nc2nc(C)cc(C)n2)[C@@H](C)[C@@H]1C1CC1 [Example 408, (2S,3R,4R)-1-acetyl-2-cyclopropyl-4-((4,6-dimethylpyrimidin-2-yl)amino)-3-methyl-1,2,3,4-tetrahydroquinoline-6-carboxamide]
The IC50 of the first is lower: 100 nM for the first, 1000 to 100000 nM for the second.

CC(=O)N1c2ccc(-c3nnc(C)s3)cc2[C@H](Nc2ncccn2)[C@@H](C)[C@@H]1C1CC1 [Example 590, 1-((2S,3R,4R)-2-cyclopropyl-3-methyl-6-(5-methyl-1,3,4-thiadiazol-2-yl)-4-(pyrimidin-2-ylamino)-3,4-dihydroquinolin-1(2H)-yl)ethanone] and CC(=O)N1c2ccc(C3=CCOCC3)cc2[C@H](Nc2ncccn2)[C@@H](C)[C@@H]1C1CC1 [Example 555, 1-((2S,3R,4R)-2-cyclopropyl-6-(3,6-dihydro-2H-pyran-4-yl)-3-methyl-4-(pyrimidin-2-ylamino)-3,4-dihydroquinolin-1(2H)-yl)ethanone] are the same in IC50: 100 nM for the first, 100 nM for the second.

CC(=O)N1c2ccc(N3CCN[C@@H](C)C3)cc2[C@H](Nc2cnc(C)cn2)[C@@H](C)[C@@H]1C1CC1 (racemic) [Example 227, 1-((rac-2S,3R,4R)-2-cyclopropyl-3-methyl-6-((S)-3-methylpiperazin-1-yl)-4-((5-methylpyrazin-2-yl)amino)-3,4-dihydroquinolin-1(2H)-yl)ethanone] and CC(=O)N1c2ccc(N3CCOCC3)cc2[C@H](Nc2cnc(C)cn2)[C@@H](C)[C@@H]1C1CC1 (racemic) [Example 211, rac-1-((2S,3R,4R)-2-cyclopropyl-3-methyl-4-((5-methylpyrazin-2-yl)amino)-6-morpholino-3,4-dihydroquinolin-1(2H)-yl)ethanone] fall in the same range of IC50: 1000 to 100000 nM for the first, 1000 to 100000 nM for the second.

Compared with CC[C@@H]1[C@@H](C)[C@H](Nc2cccc(C)n2)c2cc(F)ccc2N1C(C)=O (single isomer, unassigned) [Example 146b], CC[C@H]1[C@H](C)[C@@H](Nc2cccc(C)n2)c2cc(C(=O)NCCC#N)ccc2N1C(C)=O (racemic) [Example 283, rac-(2S,3R,4R)-1-acetyl-N-(2-cyanoethyl)-2-ethyl-3-methyl-4-((6-methylpyridin-2-yl)amino)-1,2,3,4-tetrahydroquinoline-6-carboxamide] is lower in IC50: 1000 to 100000 nM for the first, 100 nM for the second.

CC(=O)N1c2ccc(F)cc2[C@H](Nc2ccnc(O)c2)[C@@H](C)[C@@H]1C1CC1 [Example 531, 1-((2S,3R,4R)-2-cyclopropyl-6-fluoro-4-((2-hydroxypyridin-4-yl)amino)-3-methyl-3,4-dihydroquinolin-1(2H)-yl)ethanone] and CC(=O)N1c2ccncc2C(Nc2nccc(C)n2)C(C)C1C1CC1 (racemic) [Example 598b, rac-1-((2,3,4 unknown)-2-cyclopropyl-3-methyl-4-((4-methylpyrimidin-2-yl)amino)-3,4-dihydro-1,6-naphthyridin-1(2H)-yl)ethanone] fall in the same range of IC50: 1000 to 100000 nM for the first, 1000 to 100000 nM for the second.

CC(=O)N1c2ccc(C3CCNCC3)cc2[C@H](Nc2ccc(C#N)cn2)[C@@H](C)[C@@H]1C (racemic) [Example 187, rac-6-(((2S,3R,4R)-1-acetyl-2,3-dimethyl-6-(piperidin-4-yl)-1,2,3,4-tetrahydroquinolin-4-yl)amino)nicotinonitrile] and CNC(=O)c1ccc(N[C@H]2c3cc(C4CCNCC4)ccc3N(C(C)=O)[C@@H](C)[C@@H]2C)cc1 (racemic) [Example 188, rac-4-(((2S,3R,4R)-1-acetyl-2,3-dimethyl-6-(piperidin-4-yl)-1,2,3,4-tetrahydroquinolin-4-yl)amino)-N-methylbenzamide] fall in the same range of IC50: 1000 to 100000 nM for the first, 1000 to 100000 nM for the second.

First: CC(=O)N1c2ccc(N3CCOCC3)cc2[C@H](Nc2cccc(O)n2)[C@@H](C)[C@@H]1C1CC1 (racemic) [Example 210, rac-1-((2S,3R,4R)-2-cyclopropyl-4-((6-hydroxypyridin-2-yl)amino)-3-methyl-6-morpholino-3,4-dihydroquinolin-1(2H)-yl)ethanone]
Second: CC(=O)N1c2ccc(C(=O)NC3CCOCC3)cc2[C@H](Nc2ncccn2)[C@@H](C)[C@@H]1C1CC1 [Example 484, (2S,3R,4R)-1-acetyl-2-cyclopropyl-3-methyl-4-(pyrimidin-2-ylamino)-N-(tetrahydro-2H-pyran-4-yl)-1,2,3,4-tetrahydroquinoline-6-carboxamide]
The IC50 of the first is higher: 1000 to 100000 nM for the first, 100 nM for the second.

CC(=O)N1c2ccccc2[C@H](Nc2ccc(C#N)cc2)[C@@H](C)[C@@H]1C1CC1 (racemic) [Example 30, rac-4-(((2S,3R,4R)-1-Acetyl-2-cyclopropyl-3-methyl-1,2,3,4-tetrahydroquinolin-4-yl)amino)benzonitrile] and CC(=O)N1c2ccccc2[C@H](Nc2ccc(C)cc2)[C@@H](C)[C@@H]1C (racemic) [Example 20, rac-1-((2S,3R,4R)-2,3-dimethyl-4-(p-tolylamino)-3,4-dihydroquinolin-1(2H)-yl)ethanone] are the same in IC50: 100 nM for the first, 100 nM for the second.

CC(=O)N1c2ccc(C(N)=O)cc2[C@H](Nc2nccc(C3=CCOCC3)n2)[C@@H](C)[C@@H]1C1CC1 [Example 413] and COc1ccc(N[C@H]2c3cc(C(N)=O)ccc3N(C(C)=O)[C@@H](C3CC3)[C@@H]2C)c(C#N)c1 [Example 392, (2S,3R,4R)-1-acetyl-4-((2-cyano-4-methoxyphenyl)amino)-2-cyclopropyl-3-methyl-1,2,3,4-tetrahydroquinoline-6-carboxamide] are the same in IC50: 100 nM for the first, 100 nM for the second.

With CC(=O)N1c2cccnc2[C@@H](Nc2cccc(C)n2)[C@H](C)[C@H]1C1CC1 (single isomer, unassigned) [Example 114b] the IC50 was 1000 to 100000 nM.
